Assay results taken from publication PMC11785675, “Phase Ib study of the oral PI3Kδ inhibitor linperlisib in patients with advanced solid tumors” (International Journal of Clinical Oncology, 2024).

Experiments:
[1] = system: patients with advanced solid tumors; details: 80 mg/day oral;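 also: phase Ib open-label single-arm trial, once-daily dosing in 28-day cycles, adverse events graded by NCI CTCAE v5.0, recorded until at least 30 days post last dose, incidence as patient counts and percentages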
Protocol: This phase Ib, single-arm, open-label, multi-center clinical trial recruited patients with advanced or metastatic solid tumors from eight sites in China.
The main exclusion criteria included prior use of PI3K targeted agents and clinically symptomatic central nervous system metastasis or meningeal metastasis.
Patients received oral linperlisib 80 mg once per day, taken with warm water either 1 h prior to or 2 h after a meal every day, in a 28-day cycle. Dose adjustments, including holds and reductions, were mandated for grade 3/4 hematologic and grade 3 non-hematologic toxicity. Treatment with linperlisib continued until disease progression, intolerable toxicity, withdrawal of informed consent, death or any other conditions deemed by the investigator to warrant drug discontinuation.
Physical examination, assessment of ECOG performance status, clinical laboratory evaluations, electrocardiogram, and other safety evaluations were conducted to assess safety. AEs were graded according to the National Cancer Institute Common Terminology Criteria for Adverse Events (CTCAE), Version 5.0. All AEs were recorded from the time of signing the informed consent to at least 30 days after the last dose, and were followed until resolution or stabilization. Patients underwent radiographic assessments every 8 weeks by enhanced computed tomography or magnetic resonance imaging according to RECIST 1.1.
The primary endpoint was safety as assessed by monitoring the frequency, duration, and severity of AEs. Secondary endpoints were efficacy endpoints, including ORR, DCR, and progression-free survival (PFS).
Baseline data are presented descriptively. ORR is determined by the proportion of patients who achieve a confirmed complete response (CR) or partial response (PR) as the best overall response, and is presented with CIs. PFS and overall survival (OS) curves are generated using the Kaplan–Meier method. The incidence of AEs and serious AEs (SAEs) are reported as numbers and percentages.

[2] = system: CT26 cancer model; details: preclinical findings, no reference given; cited from earlier work
[3] = Phase Ib trial: pharmacokinetics of linperlisib 80 mg once daily; format: in vivo, human
Protocol: Pharmacokinetic analysis included the first 13 patients enrolled in this study who received linperlisib at 80 mg once daily.

[4] = single-dose 14C-YY-20394 tracer study; cited from earlier work

## COc1ncc(-c2nc(N3CCOCC3)nc3c(CN4CCC(C(C)(C)O)CC4)cc(F)cc23)cc1NS(C)(=O)=O [linperlisib]
[1]; 94 patients
  Patients with dose reduction (elevated γ-glutamyltransferase and diarrhea): 2.1%
  TEAE abdominal pain, all grades: 11 (11.7) n (%)
  TEAE abdominal pain, grade ≥ 3: 1 (1.1) n (%)
  TEAE anemia, all grades: 20 (21.3) n (%)
  TEAE anemia, all grades irrespective of causality: 21.3%
  TEAE anemia, grade ≥ 3: 3 (3.2) n (%)
  TEAE asthenia, all grades: 15 (16.0) n (%)
  TEAE asthenia, grade ≥ 3: 0 n (%)
  TEAE decreased appetite, all grades: 24 (25.5) n (%)
  TEAE decreased appetite, all grades irrespective of causality: 25.5%
  TEAE decreased appetite, grade ≥ 3: 1 (1.1) n (%)
  TEAE diarrhea, all grades: 11 (11.7) n (%)
  TEAE diarrhea, grade ≥ 3: 4 (4.3) n (%)
  TEAE elevated γ-glutamyltransferase, all grades: 18 (19.1) n (%)
  TEAE elevated γ-glutamyltransferase, grade ≥ 3: 2 (2.1) n (%)
  TEAE hypercholesterolemia, all grades: 12 (12.8) n (%)
  TEAE hypercholesterolemia, grade ≥ 3: 1 (1.1) n (%)
  TEAE hypertriglyceridemia, all grades: 10 (10.6) n (%)
  TEAE hypertriglyceridemia, grade ≥ 3: 0 n (%)
  TEAE hypoalbuminemia, all grades: 15 (16.0) n (%)
  TEAE hypoalbuminemia, grade ≥ 3: 0 n (%)
  TEAE hyponatremia, all grades: 15 (16.0) n (%)
  TEAE hyponatremia, grade ≥ 3: 1 (1.1) n (%)
  TEAE increased ALT, all grades: 21 (22.3) n (%)
  TEAE increased ALT, all grades irrespective of causality: 22.3%
  TEAE increased ALT, grade ≥ 3: 3 (3.2) n (%)
  TEAE increased AST, all grades: 25 (26.6) n (%)
  TEAE increased AST, all grades irrespective of causality: 26.6%
  TEAE increased AST, grade ≥ 3: 3 (3.2) n (%)
  TEAE increased blood alkaline phosphatase, all grades: 15 (16.0) n (%)
  TEAE increased blood alkaline phosphatase, grade ≥ 3: 3 (3.2) n (%)
  TEAE increased blood bilirubin, all grades: 16 (17.0) n (%)
  TEAE increased blood bilirubin, grade ≥ 3: 1 (1.1) n (%)
  TEAE increased blood creatinine, all grades: 18 (19.1) n (%)
  TEAE increased blood creatinine, grade ≥ 3: 2 (2.1) n (%)
  TEAE increased blood lactate dehydrogenase, all grades: 13 (13.8) n (%)
  TEAE increased blood lactate dehydrogenase, grade ≥ 3: 0 n (%)
  TEAE leukopenia, all grades: 16 (17.0) n (%)
  TEAE leukopenia, grade ≥ 3: 1 (1.1) n (%)
  TEAE nausea, all grades: 16 (17.0) n (%)
  TEAE nausea, grade ≥ 3: 0 n (%)
  TEAE neutropenia, all grades: 13 (13.8) n (%)
  TEAE neutropenia, grade ≥ 3: 3 (3.2) n (%)
  TEAE protein urine present, all grades: 10 (10.6) n (%)
  TEAE protein urine present, grade ≥ 3: 0 n (%)
  TEAE proteinuria, all grades: 25 (26.6) n (%)
  TEAE proteinuria, all grades irrespective of causality: 26.6%
  TEAE proteinuria, grade ≥ 3: 0 n (%)
  TEAE pyrexia, all grades: 10 (10.6) n (%)
  TEAE pyrexia, grade ≥ 3: 0 n (%)
  TEAE rash, all grades: 14 (14.9) n (%)
  TEAE rash, grade ≥ 3: 2 (2.1) n (%)
  TEAE vomiting, all grades: 15 (16.0) n (%)
  TEAE vomiting, grade ≥ 3: 2 (2.1) n (%)
  TEAE weight loss, all grades: 20 (21.3) n (%)
  TEAE weight loss, all grades irrespective of causality: 21.3%
  TEAE weight loss, grade ≥ 3: 0 n (%)
  TRAE decreased appetite: 18.1%
  TRAE elevated γ-glutamyltransferase: 16.0%
  TRAE increased ALT: 18.1%
  TRAE increased AST: 22.3%
  TRAE proteinuria: 21.3%
  TRAEs leading to death: No TRAEs leading to death were reported
[1]; 94 patients, 29 SAEs
  Patients with SAEs of grade 3 or greater: 27.7%
[1]; 94 patients, data cutoff April 03, 2023
  Patients who discontinued treatment due to AEs: 21.3%
[1]; 94 patients, thirty-five SAEs
  Patients with SAEs: 30.9%
[1]; all grades
  Incidence of hyperglycemia related to linperlisib: 2.1%
[1]; compared with other PI3K inhibitors
  Incidence of diarrhea, colitis, and hepatotoxicity: very low
[2]
  Tumor volume: reduced tumor volume
[3]; 80 mg once daily
  Accumulation after multiple administrations: no accumulation was observed
[3]; 80 mg once daily, cycle 1, day 7, range 68.4–232
  Trough levels: 167.7 ng/mL
[3]; 80 mg once daily, listed as Linperlisib
  Accumulation after multiple administrations: no accumulation is observed
[3]; 80 mg oral
  Absorption after a single dose: rapidly absorbed
[3]; human, plasma, single dose oral 80 mg qd, n = 13, read-out: Vz/F, mean (SD)
  Vd/F: 251 L
[3]; human, single dose oral 80 mg qd, n = 13, plasma, read-out: AUC0-24, mean (SD)
  AUC(0-t): 4920 ng·h/mL
[3]; human, single dose oral 80 mg qd, n = 13, plasma, read-out: AUC0-∞, mean (SD)
  AUC(0-inf): 7260 ng·h/mL
[3]; human, single dose oral 80 mg qd, n = 13, plasma, read-out: Cmax, mean (SD)
  Cmax: 364 ng/mL
[3]; human, single dose oral 80 mg qd, n = 13, plasma, read-out: MRT, median (range)
  MRT: 18.9 h
[3]; human, single dose oral 80 mg qd, n = 13, plasma, read-out: T1/2, mean (SD) (converted)
  half-life: 14.3 h
[3]; human, single dose oral 80 mg qd, n = 13, plasma, read-out: Tmax, median (range)
  Tmax: 3.9 h
[3]; single dose oral 80 mg qd, n = 13
  CL/F, mean (SD): 13.5 (4.9) L/h
[4]
  Route of excretion: primarily excreted through the kidneys
